In PubChem BioAssay (NCI):
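Compound exposure: 48 hours, 5 concentrations, 96-well plates. TGI denotes the concentration required for complete inhibition of growth.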

Legend:
Assay in all cases: NCI tumour cell line growth inhibition, 48 h
HOP-18 NSCLC = test system: HOP-18 NSCLC
KM20L2 colon = test system: KM20L2 colon
DMS 114 small cell lung = test system: DMS 114 small cell lung
LXFL 529 NSCLC = test system: LXFL 529 NSCLC
DLD-1 colon = test system: DLD-1 colon
IGROV1 ovarian = test system: IGROV1 ovarian
DMS 273 small cell lung = test system: DMS 273 small cell lung
M19-MEL melanoma = test system: M19-MEL melanoma
SNB-78 CNS = test system: SNB-78 CNS
P388/ADR leukemia = test system: P388/ADR leukemia
SN12K1 renal = test system: SN12K1 renal
XF 498 CNS = test system: XF 498 CNS

`COC(=O)C1C=CCON2CCc3c(n(S(=O)(=O)c4ccccc4)c4ccccc34)C12` (stereo not given) showed a TGI (HOP-18 NSCLC) greater than 100 µM, a TGI (KM20L2 colon) greater than 63.2 µM and a TGI (DMS 114 small cell lung) greater than 87.7 µM. For the same molecule, the TGI (LXFL 529 NSCLC) was greater than 100 µM, the TGI (DLD-1 colon) was greater than 22.8 µM and the TGI (IGROV1 ovarian) was greater than 68.2 µM. The TGI (DMS 273 small cell lung) was greater than 66.2 µM, the TGI (M19-MEL melanoma) was greater than 70.5 µM and the TGI (SNB-78 CNS) was greater than 100 µM.

With `NC(Cc1ccc(B(O)O)cc1)C(=O)NC(CO)CO` (stereo not given) the TGI (IGROV1 ovarian) was greater than 100 µM.

In the case of `Cc1csc(NNC(=O)Nc2ccccc2)n1`, the TGI (IGROV1 ovarian) is reported as greater than 100 µM.

`CC1=C2C3OC(=O)C(C)C3CCC2(C)C=CC1=Nc1ccccc1` (stereo not given) showed a TGI (HOP-18 NSCLC) greater than 100 µM, a TGI (P388/ADR leukemia) greater than 100 µM and a TGI (SN12K1 renal) greater than 100 µM. The TGI (KM20L2 colon) was greater than 100 µM, the TGI (DMS 114 small cell lung) was greater than 100 µM and the TGI (DLD-1 colon) was greater than 100 µM. It also gave a TGI (IGROV1 ovarian) greater than 100 µM, a TGI (DMS 273 small cell lung) greater than 100 µM and a TGI (M19-MEL melanoma) greater than 100 µM. For the same molecule, the TGI (SNB-78 CNS) was greater than 100 µM.

`CC1(C)OC(=O)C(Cc2ccccc2)(Cc2ccccc2)C(=O)O1` was tested, and the TGI (IGROV1 ovarian) was greater than 100 µM.

Molecule `COc1cc(C2c3c(ccc4ccccc34)C(=O)C3CCC(=O)N32)cc(OC)c1O` (stereo not given) has a TGI (IGROV1 ovarian) greater than 25 µM.

`COc1cc2c[n+](C)c3c(c2cc1OC)Cc1cc2c(cc1-3)OCO2` gave a TGI (IGROV1 ovarian) greater than 100 µM.

`c1ccc([P+](c2ccccc2)(c2ccccc2)C2c3ccccc3-c3ccccc32)cc1` was tested, and the TGI (IGROV1 ovarian) was 13.6 µM.

`O=P(O)(CN1CCN(CP(=O)(O)c2ccccc2)CCN(CP(=O)(O)c2ccccc2)CC1)c1ccccc1` showed a TGI (IGROV1 ovarian) greater than 100 µM.

`CC(C)[C@@H](C)[C@@]1(C)C[C@@H]1[C@@H](C)[C@H]1CC[C@@H]([C@@H]2CC=C3C[C@@H](O)CC[C@]3(C)C2=O)[C@]1(C)CCO` was tested, and the TGI (IGROV1 ovarian) was 29.8 µM.

In the case of `COc1cc(/C=N/NC2=NCCCCN2)ccc1O`, the TGI (IGROV1 ovarian) is reported as greater than 100 µM.

With `O=c1c2ccccc2[nH]c2c(Cl)cc(Cl)c(N3CCCCC3)c12` the TGI (IGROV1 ovarian) was 48.2 µM.

`COc1cccc(-c2c(-c3ccccc3)[nH]c(C)c2C(=O)ONC(=O)c2ccccc2)c1` gave a TGI (IGROV1 ovarian) of 3.18 µM.

`COC1=CC(=O)C2=C(C[C@@]3(C)C(=C2)C(CO)=CC[C@H]3O)C1=O` gave a TGI (IGROV1 ovarian) of 31.7 µM.

Molecule `S=C(N1CCN(c2ccccc2)CC1)N1CCN(c2ccccc2)CC1` has a TGI (IGROV1 ovarian) greater than 100 µM.

Work on `CCOC(=O)C(=O)NC12CC3CC(CC(C3)C1)C2` yielded a TGI (HOP-18 NSCLC) greater than 100 µM, a TGI (XF 498 CNS) greater than 100 µM and a TGI (KM20L2 colon) greater than 100 µM. For the same molecule, the TGI (DMS 114 small cell lung) was greater than 100 µM, the TGI (LXFL 529 NSCLC) was greater than 100 µM and the TGI (DLD-1 colon) was greater than 100 µM. The TGI (IGROV1 ovarian) was greater than 100 µM and the TGI (DMS 273 small cell lung) was greater than 100 µM.

In the case of `CNC(=O)NS(=O)(=O)c1ccc(C)cc1`, the TGI (IGROV1 ovarian) is reported as greater than 100 µM.

With `O=C1O/C(=C\c2ccc(O)cc2)C(c2ccc(O)c(Cl)c2)=C1Cl` the TGI (IGROV1 ovarian) was greater than 100 µM.

`COC1C(O)C(C)OC(OC2CCC3(C)C(CCC4C3C(O)CC3(C)C(C5=CC(=O)OC5)CCC43O)C2)C1O` (stereo not given) showed a TGI (IGROV1 ovarian) of 10.7 µM.

`Cc1nnc(Sc2nc(C#N)c(C#N)nc2Sc2nnc(C)s2)s1` gave a TGI (IGROV1 ovarian) of 21.3 µM.

Work on `O=c1c2c(F)c(F)c(F)c(F)c2sc2nccn12` yielded a TGI (IGROV1 ovarian) of 32.3 µM.

`N#Cc1c(O)c2ccccc2[nH]c1=O` showed a TGI (IGROV1 ovarian) greater than 100 µM.

`CCCCc1ccc(C#CC#Cc2ccc(CCCC)s2)s1` showed a TGI (IGROV1 ovarian) greater than 100 µM.

`Cn1c(=O)c(Cl)c(N=[N+]=[N-])c2ccccc21` was tested, and the TGI (IGROV1 ovarian) was greater than 100 µM.

`O=C1C(S(=O)(=O)c2ccccc2)=C(CS(=O)(=O)c2ccccc2)[C@@H](OCc2ccccc2)[C@@H]1OCc1ccccc1` was tested, and the TGI (IGROV1 ovarian) was 33.8 µM.

With `CC1C(c2ccccc2O)c2cc3c(cc2OC1N1CCOCC1)OCO3` (stereo not given) the TGI (IGROV1 ovarian) was greater than 100 µM.

`COC1/C=C/C(C)C(C(C)C(OC)C(C)CCC(=O)C(C)C(CC(=O)O)OC)OC(=O)/C=C/C=C(\C)CC(OC)CC2=CC(=O)O[C@H](C2)C(C)C(OC)CC(OC)/C=C/C(C)C(OC)C1` (stereo not given in full) was tested, and the TGI (IGROV1 ovarian) was 0.435 µM.

With `COC1CC(O[C@H]2CC[C@@]3(C)[C@@H](CC[C@]4(O)[C@@H]3CC[C@]3(C)[C@@H](C(C)=O)[C@H](OC(=O)CC(C)C)[C@@H](OC(=O)c5ccccc5)[C@@]34O)C2)OC(C)C1OC1CC(OC)C(OC2OC(C)C(O)C(OC)C2O)C(C)O1` (stereo not given in full) the TGI (IGROV1 ovarian) was greater than 25 µM.

In the case of `C/C(Cc1ccc2c(c1)OCO2)=N\NC(=O)C(C)Sc1nnc(SC(C)C(=O)N/N=C(\C)Cc2ccc3c(c2)OCO3)s1` (stereo not given), the TGI (IGROV1 ovarian) is reported as greater than 100 µM.

For `CCCN(CCC)C1=Nc2ccccc2-n2cnnc2C1`, the TGI (XF 498 CNS) was greater than 100 µM, the TGI (KM20L2 colon) was greater than 100 µM and the TGI (DMS 114 small cell lung) was greater than 100 µM. The TGI (LXFL 529 NSCLC) was greater than 100 µM, the TGI (IGROV1 ovarian) was greater than 100 µM and the TGI (DMS 273 small cell lung) was greater than 100 µM. It also gave a TGI (M19-MEL melanoma) greater than 100 µM and a TGI (SNB-78 CNS) greater than 100 µM.

Work on `O=C1/C(=C/c2ccc(Cl)cc2)CSC/C1=C\c1ccc(Cl)cc1` yielded a TGI (IGROV1 ovarian) of 3.65 µM.

`CCOC(=O)C(CCc1ncnc2c1ncn2Cc1ccccc1)(CCc1ncnc2c1ncn2Cc1ccccc1)C(=O)OCC` gave a TGI (IGROV1 ovarian) greater than 100 µM.

`O=C1c2ccccc2C(=O)c2c(NCCCN3CCOCC3)ccc(NCCCN3CCOCC3)c21` was tested, and the TGI (IGROV1 ovarian) was 29.4 µM.

Work on `C=C1Cc2cc(OC)c(OC)c(OC)c2-c2ccc(SC)c(=O)cc21` yielded a TGI (HOP-18 NSCLC) of 11.9 µM, a TGI (DMS 114 small cell lung) of less than 0.0279 µM and a TGI (LXFL 529 NSCLC) of 1.81 µM. The TGI (DLD-1 colon) was 3.7 µM, the TGI (IGROV1 ovarian) was 7.66 µM and the TGI (M19-MEL melanoma) was 2.42 µM. The TGI (SNB-78 CNS) was 49.4 µM.

Molecule `CC(O)[C@@]1(c2ccccc2)CC2(CCN(C)CC2)O[C@H]1C` (stereo not given in full) has a TGI (IGROV1 ovarian) greater than 100 µM.

Molecule `CN(C(=O)c1ccc(OCCCC(=O)O)c(Cl)c1Cl)C1CCCC1` has a TGI (HOP-18 NSCLC) greater than 100 µM, a TGI (P388/ADR leukemia) greater than 100 µM and a TGI (SN12K1 renal) greater than 100 µM. The TGI (XF 498 CNS) was 85.2 µM, the TGI (KM20L2 colon) was greater than 100 µM and the TGI (DMS 114 small cell lung) was greater than 100 µM. It also gave a TGI (DLD-1 colon) greater than 100 µM, a TGI (IGROV1 ovarian) greater than 100 µM and a TGI (DMS 273 small cell lung) greater than 100 µM. It also gave a TGI (M19-MEL melanoma) greater than 100 µM and a TGI (SNB-78 CNS) greater than 100 µM.

`COC(=O)/C(C#N)=C(\N)c1c(C)c2ccccc2oc1=N` was tested, and the TGI (IGROV1 ovarian) was greater than 100 µM.

`COc1cc(C=O)cc(O)c1O` was tested, and the TGI (KM20L2 colon) was greater than 100 µM, the TGI (DMS 114 small cell lung) was greater than 100 µM and the TGI (LXFL 529 NSCLC) was greater than 100 µM. The TGI (DLD-1 colon) was greater than 100 µM, the TGI (IGROV1 ovarian) was greater than 100 µM and the TGI (DMS 273 small cell lung) was greater than 100 µM. The TGI (M19-MEL melanoma) was greater than 100 µM and the TGI (SNB-78 CNS) was greater than 100 µM.

With `Cc1cc2nc(N3C(=O)/C(=C/c4ccc(N(C)C)cc4)N=C3c3ccccc3)sc2cc1C` the TGI (IGROV1 ovarian) was greater than 100 µM.

With `O=C1CCCc2ccc3c(c21)CC1(Cc2ccccc2C1)C3` the TGI (IGROV1 ovarian) was greater than 100 µM.

With `C=CC1(C)OC2(CCN(C(=O)OCC)CC2)OC1C` (stereo not given) the TGI (IGROV1 ovarian) was greater than 100 µM.
